The test system of one data set is PC3 tumors. Description: PC-3 xenograft with Paclitaxel, mean tumor volume. It is filed as in vivo, mice. The conditions noted are these: for mean tumor size: 15 mg/kg i.p. oligonucleotide plus Paclitaxel; for mean tumor size, % of control: plus Paclitaxel. The source says:
In vivo treatments in a PC-3 xenograft model were done substantially as described by Zellweger et al., 2001. PC3 cells (2×10^6 cells) were xenografted by subcutaneous injection into recipient 6-8 week-old athymic nude (nu/nu) mice. When tumors reached 200 mm^3, mice were randomly assigned to one of two arms for treatment with 2′-MOE-modified IGF-IR antisense oligonucleotide (ATL1101) plus Paclitaxel, or mismatch control oligodeoxynucleotide ISIS 306064 plus Paclitaxel. Each experimental group consisted of 10 mice. After randomization, 15 mg/kg of ATL1101 antisense oligonucleotide or mismatch control oligonucleotide were injected intraperitoneal (i.p.) into each mouse once daily for the first 5 days and 3 times a week (every other day) thereafter for 7 weeks. On days 7, 9, 11, and on days 21, 23, and 25, 0.5 mg of polymeric micellar Paclitaxel was administered once daily by i.v. injection. Mean Tumor volume was measured once weekly for 8 weeks and calculated by the formula length×width×depth×0.5236.
In PC3 mice, after 5 weeks of treatment, mean tumor size in mice treated with Paclitaxel and mismatch control oligodeoxynucleotide was 326+/−40.9 mm^3 compared with 175+/−20.1 mm^3 in mice treated with Paclitaxel and ATL1101, or 53.7% of control (p<0.01). After 8 weeks of treatment, mean tumor size in mice treated with Paclitaxel and mismatch control oligodeoxynucleotide was 1417+/−222 mm^3 compared with 507+/−79.3 mm^3 in mice treated with Paclitaxel and ATL1101, or 35.8% of control (p<0.01).

The test system of data set [1] is insulin receptor IR-A, IR-B, IR-β protein. The experiment in a line: Insulin receptor transcripts and protein in PC3 Ptx-R cells. It is filed as cell-based, human. The source says:
The PC3 Ptx-R cells retain sensitivity to ATL1101-induced IGF-IR down regulation at the mRNA and protein level as shown in FIGS. 11A-C. […] ATL1101 and the control oligodeoxynucleotide ISIS 306064 had no effect on either of the alternative spliced isoform transcripts of the insulin receptor, IR-A, IR-B or IR-β protein or vinculin protein levels.

Data set [2] relates to insulin receptor-B (IR-B). Description: Insulin receptor-B protein in transfected LNCaP and PC3 cells, immunoblot. The format is cell-based, human. The conditions noted are these: highest ATL1101 concentration tested for each cell line (LNCaP, PC3). As to the method:
FIGS. 1B(i)-1B(ii) show sequence-specific and dose-dependent inhibition of IGF-IR protein by IGF-IR antisense oligonucleotide in LNCaP (FIG. 1B (i)) and PC-3 (FIG. […]) cells. […] Two days after the second transfection, whole cell detergent lysates were prepared and 30 μg of total protein was subjected to SDS-PAGE and immunoblotted for IGF-IRB subunit, IR-BB subunit and vinculin expression. Oligofectamine, oligofectamine treated cells only. In LNCaP cells, IGF-IR expression was >80% suppressed by 10 nM ATL1101 and was undetectable at 100 nM ATL1101. In PC3 cells, IGF-IR expression was suppressed ˜50% at 10 nM ATL1101, >80% at 50 nM ATL1101 and >90% at 200 nM. […] Vinculin expression is shown as a loading control.

The test system of data set [3] is Cyclin D1, Cyclin E, p-RB, p27. The experiment in a line: Cell cycle proteins in LNCaP and PC-3 cells, immunoblot. The format is cell-based, human. As to the method:
(§1) The Effect of IGF-IR silencing with IGF-IR antisense oligonucleotide (ATL1101) on LNCaP and PC3 cell apoptosis and cell cycle is shown in FIGS. 4A(i)-(ii), 4B, 4C(i)-(ii), and Table 2. Cells were transfected with indicated concentrations of ATL1101, control oligodeoxynucleotide or oligofectamine as in FIGS. 1A(i)-1B(ii). Two days after treatment, cell cycle analysis was determined by flow cytometry using propidium iodide staining. […] In FIGS. 4C(i)-(ii), LNCaP (FIG. 4C (i)) or PC-3 (FIG. 4C (ii)) cells were transfected with indicated concentration of ATL1101 or control oligodeoxynucleotide (ISIS 306064) for two days. Cells were then cultured in FBS media for one day and in serum-free media for one day. Whole cell lysates (30 μg) were subjected to SDS-PAGE and immunoblotted to assess Cyclin D1, Cyclin E, p-RB, total Rb, and p27 protein levels. Oligo, oligofectamine treated cells only.

The test system of data set [4] is IGF-IRβ, p-AKT, p-ERK1/2, cleaved PARP. The experiment in a line: Intracellular signaling in LNCaP and PC3 cells, immunoblot. Conditions: 100 nM. It is filed as cell-based, human. The method, then:
The suppression of intracellular signaling in IGF-IR antisense oligonucleotide-treated LNCaP (FIG. 3A) and PC3 (FIG. 3B) in vitro is shown in FIGS. 3A-3B. LNCaP or PC3 cells were transfected with 100 nM ATL1101 or control oligodeoxynucleotide (ISIS 306064) for two days. Cells were then cultured in FBS media for one day and in serum-free media for one day. Whole cell lysates (30 μg) were subjected to SDS-PAGE and immunoblotted to assess IGF-IRβ, p-AKT, total AKT, p-ERK1/2, total ERK1/2, cleaved PARP, and vinculin protein levels. Oligo, oligofectamine treated cells only.

For a further data set, the system named is LNCaP cells. The experiment in a line: LNCaP cell cycle and apoptosis, flow cytometry with propidium iodide. The conditions noted are these: 100 nM. The format is cell-based, human. As to the method: Established methods were used to test the activity of IGF-IR antisense oligonucleotide on LNCaP and PC-3 cell growth (crystal violet assay) and apoptosis (FACS). Dose- and sequence-specific suppression of IGF-IR mRNA and protein expression in ATL1101-treated LNCaP and PC3 PC cell lines in vitro were observed by QT-PCR and western blotting. Effects of the IGF-IR antisense oligonucleotide on various putative targets, including IGF-IR and downstream targets were evaluated using western blotting.
as §1

Another data set deals with Ptx-R PC3 cells. Description: Ptx-R PC3 viable cells after transfection with or without Paclitaxel. It is filed as cell-based, human. As to the method:
The number of viable PC3 and PtxR PC3 cells was determined 72 hours after the second transfection.
[…] The number of viable cells remaining was determined 72 hours after the second transfection treatment. ATL1101 treatment enhances the Ptx-R sensitivity to Paclitaxel under standard culture conditions. For example, there was approximately 45% cell viability with 100 nM Paclitaxel and 25 nM control oligodeoxynucleotide whereas, only 25 nM Paclitaxel is needed in the presence of 25 nM ATL1101 to produce the same reduction in cell viability.

Consider one substance from US9084770B2, “Modulation of insulin like growth factor I receptor expression in cancer” (Antisense Therapeutics, Ltd., priority 2008, dated 2015).

Marks after values point to notes of the source that are not given here.

In the case of “cgaaggaaacaatactccga (CGAAGGAAACAATACTCCGA; 2'-MOE modified, pattern not given here) [ISIS 175317, 2′-MOE-modified IGF-IR antisense oligonucleotide, also known as ATL1101]”, in the data set on PC3 tumors (after 5 weeks of treatment), the mean tumor size is recorded as 175+/−20.1 mm^3 and the “mean tumor size, % of control” value is 53.7%. For the same substance, in the data set with PC3 tumors (after 8 weeks of treatment), the mean tumor size is 507+/−79.3 mm^3 and the “mean tumor size, % of control” value is recorded as 35.8%. Further, the “insulin receptor IR-A, IR-B transcripts or IR-β protein levels” value in data set [1] is on record as “no effect”. The “suppression of IR-B expression” value in data set [2] is recorded as less than 10%. Also, in data set [3], the “activation of Cyclin D1, Cyclin E, p-RB” value was “suppressed” and the p27 protein production entry is “increased”. Further, in data set [4], the IGF-IR expression entry is listed as “undetectable”; the “activation of AKT and ERK1/2” value is reported as “suppressed”; the “cleaved PARP production” value is “increased”. Besides, in the data set with LNCaP cells (CSS condition), the “% of total cells, G0/G1” value worked out at 13.3%; the “% of total cells, G2/M” value is recorded as 1.2%; the “% of total cells, S” value is 1.2%; the “% of total cells, Sub G0/G1” value is reported as 84.3%. For the same substance, the “subG0/G1 + G0/G1:S + G2/M” value in the data set with LNCaP cells (CSS condition) is on record as 40.7***. In the data set with LNCaP cells (FBS condition), the “% of total cells, G0/G1” value is listed as 32.8%; the “% of total cells, G2/M” value is 2.8%; the “% of total cells, S” value worked out at 3.4%; the “subG0/G1 + G0/G1:S + G2/M” value is given as 15.1**. For the same substance, the “% of total cells, Sub G0/G1” value in the data set with LNCaP cells (FBS condition, two days after treatment) was 61%. Besides, the “Paclitaxel concentration needed to produce the same reduction in cell viability (approximately 45% viability)” value in the data set on Ptx-R PC3 cells (in the presence of 25 nM ATL1101) is 25 nM. In addition, the “sensitivity of viable cell number to ATL1101” value in the data set with Ptx-R PC3 cells (up to 250 nM, 72 hours after second transfection, standard culture conditions) is listed as “retain ATL1101 sensitivity”.
